Laboratory results: patent publication US12473250B2, “Molecular design of new antibiotics and antibiotic adjuvants against MCR strains” (priority 2019, dated 2025)
Converted amounts (≈) assume the structure as drawn.

Legend:
Format in all cases: cell-based
[1] = test system: colistin resistant MCR (+) E. Coli strains; test: MIC, broth microdilution, compound alone; conditions: compound alone
Experimental: (§1) MIC experiments of the antimicrobial agents were determined by a modified broth microdilution method in accordance with the Clinical and Laboratory Standards Institute (CLSI) guidelines using 96 well culture plates. In brief, serial dilutions of all plates were prepared at different concentrations (μg). The inoculum suspension was prepared by adding isolated colonies from a 18-20 hours on TSA plate into phosphate buffer (0.31 mM, pH 7.2) or in water for injection (BBraun) and adjusting the suspension to a turbidity equivalent to 0.5 McFarland Standard. Each well contained a final bacterial concentration of approximately 5×10^5 colony forming units (CFU)/mL. The plate was covered and incubated at 35° C. for 24 hours. […] For the microdilution plates, turbidity in wells can be measured at OD600 using TECAN infinite M200Pro. MIC was determined as […] concentration that gives a 99 percent inhibition.

[2] = test system: colistin resistant MCR (−) E. Cloacae strain 7023456439; test: MIC, broth microdilution, compound alone; conditions: strain 7023456439 E. Cloacae
Experimental: as §1

[3] = test system: colistin resistant MCR (−) E. Coli strains; test: MIC, broth microdilution, compound alone
Experimental: as §1

[4] = test system: colistin resistant MCR (−) E. Cloacae strain 7023456439; test: Synergy study: colistin MIC in the presence of compound; conditions: strain 7023456439 E. Cloacae
Experimental: (§2) The MICs of the individual drugs and LC compound in combinations were determined using the broth microdilution technique as recommended by the CLSI whereby the two anti-microbial agents were added in an equal amount. (e.g.: 50 μL of Colistin: 50 μL of LC compounds). Diluted media containing compounds and antibiotics will be serially diluted 2-fold, and LC compounds and antibiotics alone or in combination will be assayed at fixed synergy concentration. In all cases, the lowest concentration at which no visible growth occurred was be recorded to be the MIC value of individual and combined antibacterial agents. The results were obtained after 24 hours of incubation.

[5] = test system: colistin resistant MCR (−) E. Coli strains; test: as above
Experimental: as §2

[6] = test system: colistin resistant MCR (+) E. Coli strains; test: as above; conditions: for Colistin MIC in the presence of the compound: compound at 3 μg
Experimental: as §2

[7] = compound at 10 μg (Table 2a: 10 ug/ml)
[8] = strain 6083672926, MCR(−), compound at 10 μg (Table 2a: 10 ug/ml)
[9] = strain 7023446108, MCR(−), compound at 10 μg (Table 2a: 10 ug/ml)
[10] = strain 7033607097, MCR(−), compound at 10 μg (Table 2a: 10 ug/ml)
[11] = strain 6083672926, MCR(−), compound at 5 μg (Table 2a: 5 ug/ml)
[12] = strain 7023446108, MCR(−), compound at 5 μg (Table 2a: 5 ug/ml)
[13] = strain 7033607097, MCR(−), compound at 5 μg (Table 2a: 5 ug/ml)

`CC(C)=CCc1c(OCCC[N+](C)(C)C)ccc(C(=O)/C=C/c2ccc(OCCC[N+](C)(C)C)cc2)c1O` [LC312] was tested, and the MIC ([1]; strain 6075066346, MCR (+)) was 12.5 µg/mL, the MIC ([1]; strain 6083655967, MCR (+)) was 12.5 µg/mL and the MIC ([1]; strain 6103645107, MCR (+)) was 12.5 µg/mL. For the same compound, the MIC ([1]; strain 6123520276, MCR (+)) was 12.5 µg/mL, the MIC ([1]; strain 7013177695, MCR (+)) was 12.5 µg/mL and the MIC ([1]; strain 7023436560, MCR (+)) was 6.25 µg/mL. The MIC ([1]; strain 7023444207, MCR (+)) was 12.5 µg/mL, the MIC [2] was >50 µg/mL and the MIC ([3]; strain 6083672926, MCR (−)) was 12.5 µg/mL. For the same compound, the MIC ([3]; strain 7023446108, MCR (−)) was 6.25 µg/mL, the MIC ([3]; strain 7033607097, MCR (−)) was 12.5 µg/mL and the “Colistin MIC in the presence of the compound” value (shortened to “Colistin MIC in the presence”) [4, 7] was >12.5 µg/mL. The “Colistin MIC in the presence” value [5, 8] was <0.0975 µg/mL, the “Colistin MIC in the presence” value [5, 9] was <0.0975 µg/mL and the “Colistin MIC in the presence” value [5, 10] was <0.0975 µg/mL.

In the case of `CC[N+](CC)(CC)CCCCOc1ccc(C2COc3c(ccc4c3C=CC(C)(C)O4)C2)c(OCCCC[N+](CC)(CC)CC)c1` (stereo not drawn) [LC317], the MIC ([1]; strain 6075066346, MCR (+)) is reported as 50 µg/mL, the MIC ([1]; strain 6083655967, MCR (+)) is reported as 50 µg/mL and the MIC ([1]; strain 6103645107, MCR (+)) is reported as 50 µg/mL. The MIC ([1]; strain 6123520276, MCR (+)) was >50 µg/mL, the MIC ([1]; strain 7013177695, MCR (+)) was 50 µg/mL and the MIC ([1]; strain 7023436560, MCR (+)) was 50 µg/mL. The MIC ([1]; strain 7023444207, MCR (+)) was 50 µg/mL, the MIC [2] was >50 µg/mL and the MIC ([3]; strain 6083672926, MCR (−)) was >50 µg/mL. The MIC ([3]; strain 7023446108, MCR (−)) was 50 µg/mL, the MIC ([3]; strain 7033607097, MCR (−)) was >50 µg/mL and the “Colistin MIC in the presence” value [4, 7] was >12.5 µg/mL. The “Colistin MIC in the presence” value [5, 8] was 1.56 µg/mL, the “Colistin MIC in the presence” value [5, 9] was 1.56 µg/mL and the “Colistin MIC in the presence” value [5, 10] was 1.56 µg/mL.

`Cc1cc(OCCCCN(Cc2ccccn2)Cc2ccccn2)cc(OCCCCN(Cc2ccccn2)Cc2ccccn2)c1.[Cl][Zn][Cl].[Cl][Zn][Cl]` [Orc-DPA-Zn] was tested, and the MIC ([1]; strain 6075066346, MCR (+)) was 50 µg/mL, the MIC ([1]; strain 6083655967, MCR (+)) was 50 µg/mL and the MIC ([1]; strain 6103645107, MCR (+)) was >50 µg/mL. It also gave an MIC ([1]; strain 6123520276, MCR (+)) of 50 µg/mL, an MIC ([1]; strain 7013177695, MCR (+)) of 50 µg/mL and an MIC ([1]; strain 7023436560, MCR (+)) of 50 µg/mL. The MIC ([1]; strain 7023444207, MCR (+)) was 50 µg/mL, the MIC [2] was >50 µg/mL and the MIC ([3]; strain 6083672926, MCR (−)) was 50 µg/mL. The MIC ([3]; strain 7023446108, MCR (−)) was 50 µg/mL, the MIC ([3]; strain 7033607097, MCR (−)) was 50 µg/mL and the “Colistin MIC in the presence” value ([4]; compound at 50 ug/ml) was <0.195 µg/mL. The “Colistin MIC in the presence” value ([5]; strain 6083672926, MCR(−), compound at 50 ug/ml) was <0.195 µg/mL, the “Colistin MIC in the presence” value ([5]; strain 7023446108, MCR(−), compound at 50 ug/ml) was <0.195 µg/mL and the “Colistin MIC in the presence” value ([5]; strain 7033607097, MCR(−), compound at 50 ug/ml) was <0.195 µg/mL.

`CCOC(=O)C(CCCNC(=N)N)NC(=O)COc1ccc(/C=C/C(=O)c2ccc(OCC(=O)NC(CCCNC(=N)N)C(=O)OCC)c(CC=C(C)C)c2O)cc1` (stereo not drawn) [LC137] gave an MIC ([1]; strain 6075066346, MCR (+)) of 12.5 µg/mL (≈ 15.5 µM), an MIC ([1]; strain 6083655967, MCR (+)) of 12.5 µg/mL (≈ 15.5 µM) and an MIC ([1]; strain 7103531927, MCR (+)) of 12.5 µg/mL (≈ 15.5 µM). For the same compound, the MIC ([3]; strain 6083672926, MCR (−)) was 12.5 µg/mL (≈ 15.5 µM), the MIC ([3]; strain 7023446108, MCR (−)) was 12.5 µg/mL (≈ 15.5 µM) and the MIC ([3]; strain 7033607097, MCR (−)) was 12.5 µg/mL (≈ 15.5 µM). For the same compound, the synergy with colistin ([6]; against mcr-1 bacteria, in words) was “excellent synergy”, the “Colistin MIC in the presence” value ([6]; strain 6083655967, MCR(+)) was 0.78 µg/mL and the “Colistin MIC in the presence” value ([6]; strain 7103531927, MCR(+)) was 0.39 µg/mL. The “Colistin MIC in the presence” value ([5]; strain 6083672926, MCR(−), compound at 3 μg) was 6.25 µg/mL, the “Colistin MIC in the presence” value ([5]; strain 6083672926, MCR(−), compound at 4 μg) was 0.195 µg/mL and the “Colistin MIC in the presence” value [5, 11] was ≤0.0975 µg/mL. The “Colistin MIC in the presence” value ([5]; strain 7023446108, MCR(−), compound at 3 μg) was 0.39 µg/mL, the “Colistin MIC in the presence” value ([5]; strain 7023446108, MCR(−), compound at 4 μg) was <0.0975 µg/mL and the “Colistin MIC in the presence” value [5, 12] was ≤0.0975 µg/mL. For the same compound, the “Colistin MIC in the presence” value ([5]; strain 7033607097, MCR(−), compound at 3 μg) was 0.195 µg/mL, the “Colistin MIC in the presence” value ([5]; strain 7033607097, MCR(−), compound at 4 μg) was <0.0975 µg/mL and the “Colistin MIC in the presence” value [5, 13] was ≤0.0975 µg/mL.

`CC[N+](CC)(CC)CCCCOc1ccc(/C=C/C(=O)c2ccc(OCCCC[N+](CC)(CC)CC)c(CC=C(C)C)c2O)cc1` [LC315] was tested, and the MIC ([1]; strain 6075066346, MCR (+)) was 6.25 µg/mL, the MIC ([1]; strain 6083655967, MCR (+)) was 6.25 µg/mL and the MIC ([1]; strain 6103645107, MCR (+)) was 6.25 µg/mL. It also gave an MIC ([1]; strain 6123520276, MCR (+)) of 12.5 µg/mL, an MIC ([1]; strain 7013177695, MCR (+)) of 12.5 µg/mL and an MIC ([1]; strain 7023436560, MCR (+)) of 6.25 µg/mL. The MIC ([1]; strain 7023444207, MCR (+)) was 12.5 µg/mL, the MIC [2] was >50 µg/mL and the MIC ([3]; strain 6083672926, MCR (−)) was 25 µg/mL. For the same compound, the MIC ([3]; strain 7023446108, MCR (−)) was 12.5 µg/mL, the MIC ([3]; strain 7033607097, MCR (−)) was 12.5 µg/mL and the “Colistin MIC in the presence” value ([4]; compound at 5 μg (Table 2a: 5 ug/ml)) was >12.5 µg/mL. For the same compound, the “Colistin MIC in the presence” value [5, 11] was <0.0975 µg/mL, the “Colistin MIC in the presence” value [5, 12] was <0.0975 µg/mL and the “Colistin MIC in the presence” value [5, 13] was <0.0975 µg/mL.
